Measured values reported in ChEMBL document CHEMBL5046233, “Nitroxoline and its derivatives are potent inhibitors of metallo-β-lactamases” (Eur J Med Chem, 2022).
Converted amounts (≈) assume the structure as drawn. The source made the active and inactive calls. The calls are words filed in the database; no cut-off is given here.

Experiments:
[1] = Inhibition of recombinant NDM-1 (unknown origin) using fluorocillin as substrate at 30 uM incubated for 30 mins by fluorescence based assay; conditions: Bacteria
[2] = Inhibition of recombinant NDM-1 (unknown origin) using fluorocillin as substrate at 10 uM incubated for 30 mins by fluorescence based assay; conditions: Bacteria
Bacteria [3] = assay: Inhibition of recombinant IMP-1 (unknown origin) using fluorocillin as substrate at 3 uM incubated for 30 mins by fluorescence based assay
Bacteria [4] = assay: Inhibition of recombinant VIM-1 (unknown origin) using fluorocillin as substrate at 3 uM incubated for 30 mins by fluorescence based assay
Bacteria [5] = assay: Inhibition of recombinant IMP-1 (unknown origin) using fluorocillin as substrate at 30 uM incubated for 30 mins by fluorescence based assay
Bacteria [6] = assay: Inhibition of recombinant VIM-1 (unknown origin) using fluorocillin as substrate at 10 uM incubated for 30 mins by fluorescence based assay
[7] = Cytotoxicity against human HUVEC cells assessed as metabolic activity measured after 24 hrs by cell-titer blue assay; type: toxicity, cell-based
Bacteria [8] = assay: Inhibition of recombinant VIM-1 (unknown origin) using fluorocillin as substrate at 30 uM incubated for 30 mins by fluorescence based assay
[9] = Inhibition of recombinant NDM-1 (unknown origin) using fluorocillin as substrate at 3 uM incubated for 30 mins by fluorescence based assay; conditions: Bacteria
Bacteria [10] = assay: Inhibition of recombinant IMP-1 (unknown origin) using fluorocillin as substrate at 10 uM incubated for 30 mins by fluorescence based assay
Escherichia coli [11] = assay: Antimicrobial activity against Escherichia coli clinical isolate T2228 expressing VIM-1 assessed as inhibition of bacterial growth by CLSI protocol based broth microdilution assay; type: functional
Klebsiella pneumoniae [12] = assay: Antimicrobial activity against Klebsiella pneumoniae clinical isolate T2301 expressing NDM-1 assessed as inhibition of bacterial growth by CLSI protocol based broth microdilution assay; type: functional
Escherichia coli [13] = conditions: T2228
Enterobacter cloacae [14] = assay: Antimicrobial activity against Enterobacter cloacae T2311 expressing NDM-1 assessed as inhibition of bacterial growth by CLSI protocol based broth microdilution assay; type: functional
Pseudomonas aeruginosa [15] = assay: Antimicrobial activity against Pseudomonas aeruginosa T2325 expressing IMP-1 assessed as inhibition of bacterial growth by CLSI protocol based broth microdilution assay; type: functional
Citrobacter freundii [16] = assay: Antimicrobial activity against Citrobacter freundii T2354 expressing VIM-4 assessed as inhibition of bacterial growth by CLSI protocol based broth microdilution assay; type: functional
Pseudomonas aeruginosa [17] = assay: Antimicrobial activity against Pseudomonas aeruginosa T2229 expressing SPM-1 assessed as inhibition of bacterial growth by CLSI protocol based broth microdilution assay; type: functional
Klebsiella pneumoniae [18] = assay: Antimicrobial activity against Klebsiella pneumoniae T2301 expressing NDM-1 assessed as inhibition of bacterial growth at 0.5XMIC for 6 hrs by CLSI protocol based broth microdilution assay; type: functional, organism-based
Escherichia coli [19] = assay: Antimicrobial activity against Escherichia coli T2544 expressing VIM-1 assessed as inhibition of bacterial growth by CLSI protocol based broth microdilution assay; type: functional
Pseudomonas aeruginosa [20] = assay: Antimicrobial activity against Pseudomonas aeruginosa T2217 expressing VIM-2 assessed as inhibition of bacterial growth by CLSI protocol based broth microdilution assay; type: functional
Escherichia coli [21] = assay: Antimicrobial activity against Escherichia coli T2359 expressing VIM-1 assessed as assessed as inhibition of bacterial growth at 0.5XMIC measured after 24 hrs by time-kill assay; type: functional, organism-based
Enterobacter cloacae [22] = assay: Antimicrobial activity against Enterobacter cloacae T2353 expressing VIM-1 assessed as inhibition of bacterial growth by CLSI protocol based broth microdilution assay; type: functional
Citrobacter freundii [23] = assay: Antimicrobial activity against Citrobacter freundii expressing T2431 KPC-3 assessed as inhibition of bacterial growth by CLSI protocol based broth microdilution assay; type: functional
Pseudomonas aeruginosa [24] = assay: Antimicrobial activity against Pseudomonas aeruginosa T2357 expressing VIM-1 assessed as inhibition of bacterial growth by CLSI protocol based broth microdilution assay; type: functional
Klebsiella pneumoniae [25] = assay: Antimicrobial activity against Klebsiella pneumoniae T2301 expressing NDM-1 assessed as assessed as inhibition of bacterial growth at 0.5XMIC measured after 24 hrs by time-kill assay; type: functional, organism-based
Klebsiella pneumoniae [26] = assay: Antimicrobial activity against Klebsiella pneumoniae T2216 expressing VIM-1 assessed as inhibition of bacterial growth by CLSI protocol based broth microdilution assay; type: functional
Escherichia coli [27] = assay: Antimicrobial activity against Escherichia coli T2359 expressing NDM-1 assessed as inhibition of bacterial growth by CLSI protocol based broth microdilution assay; type: functional
Pseudomonas aeruginosa [28] = assay: Antimicrobial activity against Pseudomonas aeruginosa T1098 expressing IMP-7 assessed as inhibition of bacterial growth by CLSI protocol based broth microdilution assay; type: functional
Klebsiella pneumoniae [29] = assay: Antimicrobial activity against Klebsiella pneumoniae T2432 expressing KPC-9 assessed as inhibition of bacterial growth by CLSI protocol based broth microdilution assay; type: functional
Escherichia coli [30] = assay: Antimicrobial activity against Escherichia coli T2435 expressing KPC-2 assessed as inhibition of bacterial growth by CLSI protocol based broth microdilution assay; type: functional
Escherichia coli [31] = assay: Antimicrobial activity against Escherichia coli T2359 expressing VIM-1 assessed as inhibition of bacterial growth at 0.5XMIC for 6 hrs by CLSI protocol based broth microdilution assay; type: functional, organism-based
Enterobacter cloacae [32] = assay: Antimicrobial activity against Enterobacter cloacae T2218 expressing GIM-1 assessed as inhibition of bacterial growth by CLSI protocol based broth microdilution assay; type: functional
Pseudomonas aeruginosa [33] = assay: Antimicrobial activity against Pseudomonas aeruginosa T2283 expressing VIM-2 assessed as inhibition of bacterial growth by CLSI protocol based broth microdilution assay; type: functional
Escherichia coli [34] = assay: Antimicrobial activity against Escherichia coli T2433 expressing OXA-48 assessed as inhibition of bacterial growth by CLSI protocol based broth microdilution assay; type: functional
Serratia marcescens = assay: Antimicrobial activity against Serratia marcescens T2352 expressing NDM-1 assessed as inhibition of bacterial growth by CLSI protocol based broth microdilution assay; type: functional
Escherichia coli [35] = assay: Antimicrobial activity against Escherichia coli T2351 expressing NDM-5 assessed as inhibition of bacterial growth by CLSI protocol based broth microdilution assay; type: functional
Pseudomonas aeruginosa [36] = assay: Antimicrobial activity against Pseudomonas aeruginosa T2282 expressing VIM-2 assessed as inhibition of bacterial growth by CLSI protocol based broth microdilution assay; type: functional

Molecule: O=[N+]([O-])c1ccc(O)c2ncccc12 [NITROXOLINE]
- inhibition [1]: 99%
- inhibition [2]: 81%
- inhibition (Bacteria [3]): < 20%
- inhibition (Bacteria [4]): < 20%
- inhibition (Bacteria [5]): 95%
- inhibition (Bacteria [6]): 31%
- IC50 at 24 h [7]: 283 µg/mL (≈ 1490 µM)
- inhibition (Bacteria [8]): 75%
- inhibition [9]: < 20%
- inhibition (Bacteria [10]): 42%

Molecule: CC(C)(O/N=C(\C(=O)N[C@@H]1C(=O)N2C(C(=O)[O-])=C(C[n+]3ccccc3)CS[C@H]12)c1csc(N)n1)C(=O)O [CEFTAZIDIME]
- MIC (Escherichia coli [11]): 0.256 µg/mL (≈ 0.468 µM)
- MIC (Klebsiella pneumoniae [12]): 4.1 µg/mL (≈ 7.49 µM)

Molecule: O=C(O)c1ccc2cccc(O)c2n1
- inhibition [1]: 100%
- inhibition [2]: 97%
- inhibition (Bacteria [3]): 27%
- inhibition (Bacteria [4]): 32%
- inhibition (Bacteria [5]): 95%
- inhibition (Bacteria [6]): 54%
- inhibition (Bacteria [8]): 91%
- inhibition [9]: 24%
- inhibition (Bacteria [10]): 72%

Molecule: O=C(O)c1ccc2c([N+](=O)[O-])ccc(O)c2n1
- inhibition [1]: 100%
- inhibition [2]: 95%
- inhibition (Bacteria [3]): 74%
- inhibition (Bacteria [4]): 70%
- inhibition (Bacteria [5]): 99%
- inhibition (Bacteria [6]): 99%
- inhibition (Bacteria [8]): 99%
- inhibition [9]: 20%
- inhibition (Bacteria [10]): 96%

Molecule: GENTAMICIN
- MIC (Escherichia coli [13]): 0.002 µg/mL

Molecule: CO/N=C(\C(=O)N[C@@H]1C(=O)N2C(C(=O)O)=C(COC(N)=O)CS[C@H]12)c1ccco1 [CEFUROXIME]
- MIC (Escherichia coli [11]): 1.02 µg/mL (≈ 2.41 µM)
- MIC (Klebsiella pneumoniae [12]): 8.19 µg/mL (≈ 19.3 µM)

Molecule: Cc1ccc2c(Cl)cc(Cl)c(O)c2n1
- inhibition [1]: 91%
- inhibition [2]: 71%
- inhibition (Bacteria [3]): 22%
- inhibition (Bacteria [4]): 20%
- inhibition (Bacteria [5]): 92%
- inhibition (Bacteria [6]): 58%
- inhibition (Bacteria [8]): 84%
- inhibition [9]: < 20%
- inhibition (Bacteria [10]): 73%

Molecule: CCN1CCN(C(=O)N[C@@H](C(=O)N[C@@H]2C(=O)N3[C@@H]2SC(C)(C)[C@@H]3C(=O)O)c2ccccc2)C(=O)C1=O [PIPERACILLIN]
- MIC (Escherichia coli [11]): 1.02 µg/mL (≈ 1.98 µM)
- MIC (Klebsiella pneumoniae [12]): 4.1 µg/mL (≈ 7.91 µM)

Molecule: C[C@@H](O)[C@H]1C(=O)N2C(C(=O)O)=C(SCCNC=N)C[C@H]12 [IMIPENEM ANHYDROUS]
- MIC (Enterobacter cloacae [14]): 0.008 µg/mL (≈ 0.0267 µM)
- MIC (Pseudomonas aeruginosa [15]): 0.032 µg/mL (≈ 0.107 µM)
- MIC (Citrobacter freundii [16]): 2 µg/mL (≈ 6.68 µM)
- MIC (Pseudomonas aeruginosa [17]): 0.512 µg/mL (≈ 1.71 µM)
- inhibition (Klebsiella pneumoniae [18]): Active
- MIC (Escherichia coli [19]): 0.032 µg/mL (≈ 0.107 µM)
- MIC (Pseudomonas aeruginosa [20]): 0.256 µg/mL (≈ 0.855 µM)
- inhibition (Escherichia coli [21]): Active
- MIC (Enterobacter cloacae [22]): 0.008 µg/mL (≈ 0.0267 µM)
- MIC (Citrobacter freundii [23]): 0.008 µg/mL (≈ 0.0267 µM)
- MIC (Pseudomonas aeruginosa [24]): 0.256 µg/mL (≈ 0.855 µM)
- inhibition (Klebsiella pneumoniae [25]): Active
- MIC (Klebsiella pneumoniae [26]): 0.004 µg/mL (≈ 0.0134 µM)
- MIC (Escherichia coli [27]): 0.128 µg/mL (≈ 0.428 µM)
- MIC (Escherichia coli [11]): 0.008 µg/mL (≈ 0.0267 µM)
- MIC (Pseudomonas aeruginosa [28]): 0.128 µg/mL (≈ 0.428 µM)
- MIC (Klebsiella pneumoniae [29]): 0.032 µg/mL (≈ 0.107 µM)
- MIC (Escherichia coli [30]): 0.004 µg/mL (≈ 0.0134 µM)
- inhibition (Escherichia coli [31]): Active
- MIC (Enterobacter cloacae [32]): 0.002 µg/mL (≈ 0.00668 µM)
- MIC (Pseudomonas aeruginosa [33]): 0.032 µg/mL (≈ 0.107 µM)
- MIC (Escherichia coli [34]): 0.002 µg/mL (≈ 0.00668 µM)
- MIC (Serratia marcescens): 0.256 µg/mL (≈ 0.855 µM)
- MIC (Escherichia coli [35]): 0.008 µg/mL (≈ 0.0267 µM)
- MIC (Pseudomonas aeruginosa [36]): 0.256 µg/mL (≈ 0.855 µM)
- MIC (Klebsiella pneumoniae [12]): 0.016 µg/mL (≈ 0.0534 µM)

Molecule: Oc1c(Cl)cc(Cl)c2cccnc12
- inhibition [1]: 99%
- inhibition [2]: 98%
- inhibition (Bacteria [3]): 34%
- inhibition (Bacteria [4]): 23%
- inhibition (Bacteria [5]): 97%
- inhibition (Bacteria [6]): 90%
- inhibition (Bacteria [8]): 97%
- inhibition [9]: < 20%
- inhibition (Bacteria [10]): 95%

Molecule: Nc1ccc2c([N+](=O)[O-])ccc(O)c2n1
- inhibition [1]: 93%
- inhibition [2]: 46%
- inhibition (Bacteria [3]): < 20%
- inhibition (Bacteria [4]): 20%
- inhibition (Bacteria [5]): 74%
- inhibition (Bacteria [6]): 37%
- inhibition (Bacteria [8]): 72%
- inhibition [9]: < 20%
- inhibition (Bacteria [10]): 38%

Molecule: C[C@@H](O)[C@H]1C(=O)N2C(C(=O)O)=C(S[C@@H]3CN[C@H](C(=O)N(C)C)C3)[C@H](C)[C@H]12 [MEROPENEM]
- MIC (Escherichia coli [11]): 0.008 µg/mL (≈ 0.0209 µM)
- MIC (Klebsiella pneumoniae [12]): 0.128 µg/mL (≈ 0.334 µM)
